In patent US20240418704A1, “EPIGENETIC TARGETS IN CLONAL HEMATOPOIESIS” (Memorial Sloan-Kettering Cancer Center, priority 2021, published 2024):

Test system: HSPCs co-cultured with BMECs
Assay: BMEC co-culture system: cell-type specific differentiation readout in response to small molecules
Type: cell-based, murine
Conditions: Cd11b+Gr1+, Lin neg, GMP, MEP and LSK cells after contacting the cells with the agent, FIGS. 4A-4C
Description: FIGS. 4A-4C. BMEC co-culture system can be used to readout cell-type specific dependencies in response to small molecules and single guide RNAs (sgRNAs).
A platform was adopted whereby primary murine HSPCs are co-cultured with bone marrow endothelial cells that allow for maintenance and expansion of HSPCs (FIG. 1). […] Thus, the adopted HSPC-BMEC co-culture platform is a robust system to study genetically defined murine HSPCs with CH genomic modifications.

Cc1nc(Nc2ncc(C(=O)Nc3c(C)cccc3Cl)s2)cc(N2CCN(CCO)CC2)n1 [Dasatanib]
effect on differentiation (percentage of heme-expression and cell differentiation): inhibits differentiation
